Source: patent US6054441A, “Oxypurine nucleosides and their congeners, and acyl derivatives thereof, for improvement of hematopoiesis” (priority 1995, dated 2000)

Experiments:
[1] = system: hematopoietic recovery after cyclophosphamide; assay: Hematopoietic recovery after cyclophosphamide (Example 50); assay type: in vivo, Balb/C mice; details: 2 μmoles/mouse
Experimental: Cyclophosphamide (CP) (275 mg/kg, i.p.) was administered to 96 Balb/C female mice weighing approximately 20 grams each. Twenty-four hours later and each day thereafter mice were given a 0.4 ml i.p. injection of either Tween-80 (0.2%) (controls), palmitoyldeoxyguanosine (2 μmoles/mouse), palmitoyldeoxyinosine (2 μmoles/mouse), palmitoylacyclovir (2 μmoles/mouse), palmitoylarabinosylguanine (2 μmoles/mouse), palmitoylarabinosylhypoxanthine (2 μmoles/mouse), monopalmitoylguanosine 2',3'-acyclic dialcohol (2 μmoles/mouse), and palmitoyl-8-thioguanosine (2 μmoles/mouse). On days 5 and 7 following CP administration 6 animals in each of the 8 groups were bled and then sacrificed by cervical dislocation. Spleens were removed and weighed, and complete blood cell counts performed.

[2] = system: hematopoiesis in normal mice; assay: Hematopoiesis in normal mice (Example 44); assay type: in vivo, Balb/C mice
Experimental: Normal, otherwise untreated, female Balb/C mice weighing approximately 20 grams each received a total of 4 or 9 0.4 ml intraperitoneal injections (one per day) of either Tween-80 (0.2%) (controls), palmitoylguanosine (2.5 μmoles/mouse/day), or palmitoyldeoxyinosine (2.5 μmoles/mouse/day). Twenty-four hours after the 4th or 9th treatment, groups of 5 or 6 animals from each of the 3 groups were bled and then sacrificed by cervical dislocation. Spleens were removed and weighed, and complete blood cell counts performed.

[3] = system: hematopoietic recovery after cyclophosphamide; assay: Hematopoietic recovery after cyclophosphamide (Example 48); assay type: in vivo, Balb/C mice
Experimental: Cyclophosphamide (CP) (275 mg/kg, i.p.) was administered to 36 Balb/C female mice weighing approximately 20 grams each. Twenty four hours later and each day thereafter for a total of 4 or 6 days, mice were given a 0.4 ml i.p. injection of either physiological saline (controls), palmitoyldeoxyinosine (2.5 μmoles/mouse), or palmitoylxanthosine (2.5 μmoles/mouse). On days 5 and 7 following CP administration 6 of the 12 animals in each of the 3 groups were bled and then sacrificed by cervical dislocation. Spleens were removed and weighed, and complete blood cell counts performed.

[4] = system: human myeloid leukemia cell line (HL-60); details: cited from earlier work; for conversion of immature blast cells into mature granulocytes: HL-60 in vitro
[5] = system: blood cell counts after cyclophosphamide; assay: Hematopoietic recovery after cyclophosphamide (Example 62); assay type: in vivo, Balb/C mice; details: for Spleen: 25 mg/kg TriPdG or molar equivalent
Experimental: Thirty-six female Balb/C mice weighing approximately 20 grams each received a 0.4 ml i.p. injection of either 3',5'-O-N^2 -tripalmitoyl-2'-deoxyguanosine (triPdG) at a dose of 25 mg/kg/treatment or 3',5'-O-dipalmitoyl-2'-deoxyguanosine (diPdG) at a dose that was the molar equivalent of 25 mg/kg tripalmitoylgdeoxyguanosine, in a Tween-DMSO vehicle (0.2% Tween-80 and 7.5% DMSO in saline) or vehicle alone one time daily for five days following a single injection of cyclophosphamide (CP) (250 mg/kg, i.p.). On days 5 and 7 following CP administration six animals from each of these three groups were bled and then sacrificed by cervical dislocation. Six untreated mice were also bled and sacrificed to provide data on normal. (basal) values. Spleens were removed and weighed, and complete blood cell counts performed.

[6] = system: blood cell counts after cyclophosphamide; assay: Hematopoietic recovery after cyclophosphamide (Example 63); assay type: in vivo, Balb-C mice; details: for Spleen: 25 mg/kg TriPdG or molar equivalent
Experimental: Fifty-eight female Balb-C mice weighing approximately 20 grams each received a single injection of cyclophosphamide (250 mg/kg, i.p.), and were then distributed into a vehicle control group (0.2% Tween-80+7.5% DMSO in saline; n=12) or one of five treatment groups:
Vehicle or treatment agents were administered to mice once daily for five days at a volume of 0.4 ml by i.p. injection. TriPdG was given at a dose of 25 mg/kg/treatment. The other four agents were given in doses that are the molar equivalent of 25 mg/kg/treatment of TriPdG. On days 5 and 7 following CP administration half of the animals from each of the six groups were bled and then sacrificed by cervical dislocation. Five untreated mice were also bled and sacrificed to provide data on normal (basal) values. Spleens were removed and weighed, and complete blood cell counts performed.

[7] = system: blood cell counts after 5-fluorouracil; assay: Pretreatment dose response, recovery after 5-fluorouracil (Example 65); assay type: in vivo, Balb/C mice
Experimental: Sixty female Balb/C mice weighing approximately 20 grams each were distributed into one of five treatment groups and treated once daily for three days by i.p. injection with 3',5'-O-N^2 -tripalmitoyl-2'-deoxyguanosine at a dose of either 1, 5, 10, 25, or 50 mg/kg/treatment in a Tween-DMSO vehicle (0.2% Tween-80 and 7.5% DMSO in physiological saline). Injection volume was 0.4 ml. An additional twelve animals (controls) received vehicle alone on those three days. On the fourth day all seventy-two animals received a single i.p. injection of 5-fluorouracil (5-FU) at a dose of 150 mg/kg. On days 7 and 10 following 5-FU administration six mice from each group were bled and then sacrificed by cervical dislocation. Six untreated mice were also bled and sacrificed to provide data on normal (basal) values. Spleens were removed and weighed, and complete blood cell counts performed.

bone marrow cells = assay: Proliferation of bone marrow cells in long-term culture (Example 68); assay type: cell-based, B6D2F1 mice; details: 10 micrograms per ml
Experimental: Bone marrow cells from the femurs of B6D2F1 mice were used to establish long-term marrow cultures. After four weeks, when the stromal layer was confluent, the culture was treated with microphenolic acid in order to remove all cells from the stroma. New normal bone marrow cells (1×10^5 /ml) from the same source were then used to "recharge" the stromal layer. Palmitoyldeoxyguanosine was added to half of the cultures at a concentration of 10 micrograms per ml. Cells were counted on days 1, 3, 5, and 7 following addition of palmitoyldeoxyguanosine. On days 4 and 7 cells from the culture were removed, washed, and replated in methylcellulose. The number of granulo-monocytic colonies was counted one week later.

FDCPmix cells = assay: Proliferation of FDCPmix cells, MTT assay (Example 69); assay type: cell-based
Experimental: The FDCPmix cell line was used as a suitable in vitro model for predicting the effects of hematopoietic factors on pluripotential stem cells. These cells can be maintained in an-undifferentiated state in the presence of IL-3 or undergo multi-lineage development in the presence of specific hematopoietic growth factors.
This level of proliferation (100%) served as the control value. Inhibition of proliferation by test compounds was represented as a percent of control.
FDCPmix cells were plated at a density of 5×10^4 cells per well in 96-well plates (5×10^5 /ml) using IMDM medium plus 10% fetal bovine serum. […] Test compounds were added at a decreasing concentrations ranging from 10 micrograms/ml down to 1 nanogram/ml. The test compounds included: 3',5'-O-N^2 -tripalmitoyl-2'-deoxyguanosine, 3',5'-di-O-palmitoyl-2'-deoxyguanosine, 3',5'-O-N^2 -trioctanoyl-2'-deoxyguanosine, 3',5'-di-O-octanoyl-2'-deoxyguanosine, and 3',5'-O-N^2 -trioleyl-2'-deoxyguanosine.

[8] = system: hematopoiesis in normal mice; assay: Hematopoiesis in normal mice (Example 56); assay type: in vivo, Balb/C mice; details: day 5, 2.6 μmoles/mouse, 4 days
Experimental: Normal Balb/C female mice weighing approximately 20 grams each were given a daily 0.4 ml i.p. injection of either physiological saline (controls), palmitoylguanosine (2.6 μmoles/mouse), palmitoyldeoxyguanosine (2.6 μmoles/mouse), monopalmitoylguanosine 2',3'-acyclic dialcohol (2.6 μmoles/mouse), and palmitoyl-8-bromoguanosine (2.6 μmoles/mouse) for 4 days. On the fifth day all 3 animals in each of the 5 groups were bled and then sacrificed by cervical dislocation. Spleens were removed and weighed, and complete blood cell counts performed. Femoral bone marrow from each mouse was collected and a differential cell count performed on marrow smears.

[9] = 48 h, read-out: Cell proliferation

CCCCCCCCCCCCCCCC(=O)OCCOCn1cnc2c(=O)[nH]c(N)nc21 [1-O-palmitoylacyclovir, palmitoylacyclovir]
white blood cell count ([1]; day 5): significantly elevated compared to controls in all but one treatment group (1-O-palmitoylacyclovir)

CCCCCCCCCCCCCCCC(=O)OC[C@H]1O[C@@H](n2cnc3c(=O)[nH]cnc32)C[C@@H]1O
spleen weight ([2]; day 5, 2.5 μmoles/mouse/day i.p.): significantly greater | neutrophil counts ([2]; day 10, vs Tween 80): significantly greater | spleen weight ([2]; day 10, vs Tween 80): significantly greater | total leukocyte counts ([2]; day 10, vs Tween 80): significantly greater | spleen weight ([3]; day 5, 2.5 μmoles/mouse, vs controls): significantly elevated | neutrophil counts ([3]; day 5, vs controls): significantly elevated | total leukocyte counts ([3]; day 5, vs controls): significantly elevated | neutrophil counts ([3]; day 5, vs palmitoylxanthosine): significantly elevated | total leukocyte counts ([3]; day 5, vs palmitoylxanthosine): significantly elevated | Neutrophils ([3]; day 7, vs controls): significantly increased | spleen weight ([3]; day 7, vs controls): significantly increased | total leukocytes ([3]; day 7, vs controls): significantly increased | spleen weight ([1]; day 5): significantly elevated

CC1=C(/C=C/C(C)=C/C=C/C(C)=C/C(=O)O)C(C)(C)CCC1 [retinoic acid, reference compound]
conversion of immature blast cells into mature granulocytes [4]: induced

NC(=O)c1csc([C@@H]2O[C@H](CO)[C@@H](O)[C@H]2O)n1 [tiazofurin, reference compound]
conversion of immature blast cells into mature granulocytes [4]: induced

CCCCCCCCCCCCCCCC(=O)Nc1nc2c(ncn2[C@H]2C[C@H](OC(=O)CCCCCCCCCCCCCCC)[C@@H](COC(=O)CCCCCCCCCCCCCCC)O2)c(=O)[nH]1 [TriPdG, 3',5'-O-N^2-tripalmitoyl-2'-deoxyguanosine]
Neutrophils ([5]; 5 days after CP): 2.5 ± .3 K/μl | WBC ([5]; 5 days after CP): 4.1 ± .4 K/μl | Spleen ([5]; 5 days after CP): 77 ± 7 mg | Neutrophils ([5]; 7 days after CP): 9.9 ± .9 K/μl | Platelets ([5]; 7 days after CP): 549 ± 25 K/μl | WBC ([5]; 7 days after CP): 13.4 ± .4 K/μl | Spleen ([5]; 7 days after CP): 156 ± 12 mg | Neutrophils ([6]; 5 days after CP): 0.6 ± .1 K/μl | Platelets ([6]; 5 days after CP): 330 ± 19 K/μl | WBC ([6]; 5 days after CP): 3.6 ± .4 K/μl | Spleen ([6]; 5 days after CP): 73 ± 3 mg | Neutrophils ([6]; 7 days after CP): 7.3 ± .3 K/μl | Platelets ([6]; 7 days after CP): 674 ± 37 K/μl | WBC ([6]; 7 days after CP): 3.6 ± .4 K/μl | Spleen ([6]; 7 days after CP): 198 ± 23 mg | Platelets ([7]; 7 days after 5-FU, 1 mg/kg): 457 ± 36 K/μl | Spleen ([7]; 7 days after 5-FU, 1 mg/kg): 74 ± 3 mg | Platelets ([7]; 7 days after 5-FU, 5 mg/kg): 682 ± 66 K/μl | Spleen ([7]; 7 days after 5-FU, 5 mg/kg): 78 ± 4 mg | Platelets ([7]; 7 days after 5-FU, 10 mg/kg): 571 ± 41 K/μl | Spleen ([7]; 7 days after 5-FU, 10 mg/kg): 83 ± 6 mg | Platelets ([7]; 7 days after 5-FU, 25 mg/kg): 587 ± 19 K/μl | Spleen ([7]; 7 days after 5-FU, 25 mg/kg): 93 ± 5 mg | Platelets ([7]; 7 days after 5-FU, 50 mg/kg): 596 ± 43 K/μl | Spleen ([7]; 7 days after 5-FU, 50 mg/kg): 102 ± 4 mg | Lymphocytes ([7]; 10 days after 5-FU, 1 mg/kg): 5.7 ± .2 K/μl | Neutrophils ([7]; 10 days after 5-FU, 1 mg/kg): 0.4 ± .2 K/μl | Spleen ([7]; 10 days after 5-FU, 1 mg/kg): 96 ± 13 mg | WBC ([7]; 10 days after 5-FU, 1 mg/kg): 6.2 ± .4 K/μl | Lymphocytes ([7]; 10 days after 5-FU, 5 mg/kg): 6.3 ± .7 K/μl | Neutrophils ([7]; 10 days after 5-FU, 5 mg/kg): 1.6 ± .4 K/μl | Spleen ([7]; 10 days after 5-FU, 5 mg/kg): 157 ± 13 mg | WBC ([7]; 10 days after 5-FU, 5 mg/kg): 8.2 ± .9 K/μl | Lymphocytes ([7]; 10 days after 5-FU, 10 mg/kg): 5.7 ± .4 K/μl | Neutrophils ([7]; 10 days after 5-FU, 10 mg/kg): 1.8 ± .4 K/μl | Spleen ([7]; 10 days after 5-FU, 10 mg/kg): 169 ± 24 mg | WBC ([7]; 10 days after 5-FU, 10 mg/kg): 7.7 ± .6 K/μl | Lymphocytes ([7]; 10 days after 5-FU, 25 mg/kg): 8.3 ± .4 K/μl | Neutrophils ([7]; 10 days after 5-FU, 25 mg/kg): 2.9 ± .4 K/μl | Spleen ([7]; 10 days after 5-FU, 25 mg/kg): 293 ± 17 mg | WBC ([7]; 10 days after 5-FU, 25 mg/kg): 11.4 ± .6 K/μl | Lymphocytes ([7]; 10 days after 5-FU, 50 mg/kg): 8.3 ± 1.0 K/μl | Neutrophils ([7]; 10 days after 5-FU, 50 mg/kg): 2.2 ± .5 K/μl | Spleen ([7]; 10 days after 5-FU, 50 mg/kg): 320 ± 39 mg | WBC ([7]; 10 days after 5-FU, 50 mg/kg): 10.8 ± 1.6 K/μl | Cells (bone marrow cells; day 1): 1.9 ± .13 10^6 /flask | Cells (bone marrow cells; day 3): 2.9 ± .10 10^6 /flask | granulocyte/macrophage colony-forming units (bone marrow cells; day 4): 5123 ± 561 CFU-GM/flask | Cells (bone marrow cells; day 5): 7.7 ± .2 10^6 /flask | Cells (bone marrow cells; day 7): 4.3 ± .15 10^6 /flask | granulocyte/macrophage colony-forming units (bone marrow cells; day 7): 33903 ± 9457 CFU-GM/flask | inhibition of proliferation (FDCPmix cells; 10 micrograms/ml down): significant dose-dependent inhibitory effects at doses from 10 micrograms per ml down to 100 nanograms per ml | activity at 0.01 µg/mL (FDCPmix cells; [9]): 78 ± 1% | activity at 0.039 µg/mL (FDCPmix cells; [9]): 76 ± 2% | activity at 0.156 µg/mL (FDCPmix cells; [9]): 72 ± 3% | activity at 0.625 µg/mL (FDCPmix cells; [9]): 60 ± 2% | activity at 2.5 µg/mL (FDCPmix cells; [9]): 51 ± 0.7% | activity at 10 µg/mL (FDCPmix cells; [9]): 51 ± 0.6%

palmitoylarabinosylhypoxanthine
spleen weight ([1]; day 7): significantly elevated on day 7 in all treatment groups except palmitoylarabinosylguanine and palmitoylarabinosylhypoxanthine

OC[C@H]1O[C@@H](n2cnc3c(O)ncnc32)[C@H](O)[C@@H]1O [inosine]
effect on induced maturation of HL-60 cells ([4]; HL-60 with inducing agents): no effect on induced maturation

Palmitoylguanosine 2,3'-acyclic dialcohol
spleen weight ([1]; day 5): significantly elevated | platelet counts [8]: significantly elevated in the all of the treatment groups except palmitoylguanosine 2',3'-acyclic dialcohol | spleen weight [8]: significantly elevated | number of myelocytes ([8]; femoral bone marrow): significantly greater

palmitoylarabinosylguanine
spleen weight ([1]; day 7): significantly elevated on day 7 in all treatment groups except palmitoylarabinosylguanine
